Experimental data as given in patent US20190054064A1, “VITAMIN C AND VITAMIN K COMPOUND FOR TREATING PANCREATIC CANCER” (IC-MedTech Corp., priority 2014, published 2019).
Starred links: 1 amine or outer side, 2 acyl side, 3 side chain; linkers in the order of their positions; H or OH if unused. Positions of bridges follow the written chain, without caps; N, C: chain ends. Non-standard residues stand in square brackets, D forms with d. Residues, ends and D or L forms follow the SMILES beside them. Chains are numbered I, II in the order given. Actinocin(9to1) = Cc1c2oc3c(C)ccc(C(=O)[*:1])c3nc-2c(C(=O)[*:2])c(N)c1=O; NMeV = CN[C@H](C(=O)O)C(C)C; Sar = CNCC(=O)O

Tests used:
[1] = test system: Mia PaCa-2; assay: Soft agar growth assay (Alamar Blue), Example 2, Mia PaCa-2; assay type: cell-based, human; details: Mia PaCa-2, soft agar, 8 days
Method: (§1) A stock solutions (1,000×) of menadione (VK3) were prepared in DMSO and a stock solution of calcium L-ascorbate dihydrate (VC) (1,000×) was prepared in water. All stock solutions were prediluted 1:62.5 first in medium and finally diluted to the final assay concentrations. Actinomycin D was used as a reference.
(§2) Suspension cell culture plates (96-well) were prepared. The soft agar bottom layer (100 μL, 0.6% final concentration in complete medium) was poured and left to solidify. The soft agar top layer (50 μL, 0.4% final concentration) containing the corresponding cells and cell number were then added on top, solidified, and incubated overnight at 37° C., 10% CO2. Next day, the test compounds, DMSO, or actinomycin D were added at predetermined final concentrations. […] Finally, the assay was developed using Alamar Blue and upon 0.5-5 hrs of incubation at 37° C. and fluorescence intensity was determined (excitation: 560 nm; emission: 590 nm). […]
(§3) Raw data were converted into percent soft agar growth relative to high controls (solvent 0.2% DMSO) and low controls (10^−5M staurosporine), which were set to 100% and 0%, respectively. IC50 values were calculated using standard parameters based on the signal of the solvent control as top constraint (100% soft agar growth) and the signal of the Staurosporine control as bottom constraint (0% soft agar growth).

[2] = test system: AsPC-1; assay: Soft agar growth assay (Alamar Blue), Example 2, AsPC-1; assay type: cell-based, human; details: AsPC-1, soft agar, 10 days
Method: as §1, §2, §3

[3] = test system: human pancreatic cancerous cell line MIA PaCa-2; assay: Soft agar growth assay (Alamar Blue), Example 1; assay type: cell-based; details: 240 h, MIA PaCa-2, soft agar, 10 days
Method: The effects of vitamins C and K3, alone or in combination, on pancreatic cancer were studied using human pancreatic cancerous cell line MIA PaCa-2. The pancreatic cancerous cells were cultured in DMEM containing 10% FCS and penicillin/streptomycin.
Vitamins C and K3 stock solutions in DMSO were prepared at a concentration of 2 M and 20 mM, respectively. Actinomycin D was used as a reference.
Prior to addition to the pancreatic cancerous cells, stock solutions of the test compounds (vitamins C and K3, and actinomycin D) were diluted in culture medium and 10 μL were added on top of 150 μL of solidified soft agar to diffuse into the soft agar in a 96-well plate. For each well in the 96-well plate, 100 μL of the soft agar bottom layer (0.6% final concentration in complete medium) was poured and left to solidify, and 50 μL of the soft agar top layer (0.4% final concentration) containing the pancreatic cancerous cells (about 5,000 cells/well) were then added on top, solidified. The 96-well plate was incubated overnight at 37° C., 10% CO2. The next day, the test compounds were added at the prescribed final concentrations into the inner wells of the plate. Subsequently, the assays were incubated in cell culture incubators for 10 days. […] Fluorescence intensity was then determined (excitation: 560 nm; emission: 590 nm). […]

Compound	IC50 [1] [nM]	IC50 [2] [nM]	viability at 0.6 µM ([3]; 0.6 μM Vitamin K3 alone) [%]	viability at 6 µM ([3]; 6 μM Vitamin K3 alone) [%]
Cc1c2oc3c(C)ccc(C(=O)N[C@@H]4C(=O)N[C@H](C(C)C)C(=O)N5CCC[C@H]5C(=O)N(C)CC(=O)N(C)[C@@H](C(C)C)C(=O)O[C@@H]4C)c3nc-2c(C(=O)N[C@@H]2C(=O)N[C@H](C(C)C)C(=O)N3CCC[C@H]3C(=O)N(C)CC(=O)N(C)[C@@H](C(C)C)C(=O)O[C@@H]2C)c(N)c1=O [Actinomycin D] (I: T[dV]P[Sar][NMeV] / II: T[dV]P[Sar][NMeV]; ester I:1-I:C, II:1-II:C; linker I:N-II:N via Actinocin(9to1))	0.4	2.7	–	–
CC1=CC(=O)c2ccccc2C1=O [Vitamin K3, 2-methyl-1,4-naphthoquinone]	–	–	103.2 ± 0.9	90.2 ± 12.5
